Test results: US4307097A, “Method of reducing increased intracranial pressure” (Tanabe Seiyaku Co., Ltd., priority 1979, dated 1981)

Legend:
[1] = test system: intracranial pressure; assay: Effect of i.v. injection of test compounds on intracranial pressure in rats; type: in vivo, rat (male SD-strain); conditions: rat, 0 minute = 100
Text: Male SD-strain rats weighing 500 to 800 g (each group consisting of 5 rats) were anesthetized with urethane. […] Intracranial pressure (i.e., cerebrospinal fluid pressure in the cisterna magna) was continuously monitored via a cannula inserted in the cisterna magna. The cannula was connected to a transducer, and recordings were made on graph paper.

[2] = test system: intracranial pressure; assay: Effect of p.o. administration of test compounds on intracranial pressure in rats; type: in vivo, rat (male SD-strain); conditions: rat, 8 mg/kg, 240 minutes, 0 minute = 100
Protocol: Male SD-strain rats weighing 500 to 800 g (each group consisting of 5 rats) were fasted for about 20 hours, and anesthetized with urethane. A suspension of a test compound in aqueous 0.5 w/v % carboxymethyl-cellulosewas administered orally to the rats. Then, the effect of the compound on the intracranial pressure was estimated in the same manner as described in Example 1.
Compound 4 (free base) listed in Example 1 was used in this experiment.

[3] = Therapeutic index (ratio of LD50 to minimum effective dose); type: in vivo; conditions: orally or intravenously
Text: Unlike the hypertonic solutions of glycerol or mannitol, the therapeutic effect of the propanol derivative (I) of the present invention is not ascribable to the cerebral dehydrating effect and, therefore, said derivative (I) can be used either orally or parenterally. The propanol derivative (I) may also be used for the treatment of prophylaxis of increased intracranial pressure during and after brain surgical operation. Moreover, the propanol derivative (I) may be used for improving impaired consciousness, nervous disturbance and subjective symptoms (e.g., headache, nausea, vomiting) which are attributed to the cerebral diseases such as those mentioned hereinbefore. Further, whereas it is known that cerebral edema induces a rise in intracranial pressure and increased intracranial pressure serves to cause a build-up of edema which in turn impairs cerebral circulation, the propanol derivative (I) can interrupt this vicious cycle of cerebral diseases because of its potent intracranial pressure-lowering effect and its ability to ameliorate the cerebral circulatory impairment. The toxicity of the propanol derivative (I) of the present invention is low.

[4] = Acute toxicity; conditions: in vivo, mouse, observed for a week
Protocol: The 50% lethal dose (LD50) of the test compound was calculated according to the Weil's method from the number of mice died a week after the administration.

[5] = test system: increased intracranial pressure; assay: Effect of i.v. injection on increased intracranial pressure (autologous blood injected into the lateral ventricle) in rabbits; type: in vivo, rabbit (male); conditions: rabbit, 0 minute = 100
Protocol: Male rabbits weighing 2.8 to 3.2 kg (each group consisting of 6 rabbits) were anethetized with urethane. 0.1 to 0.2 ml of autologous blood were injected into the lateral ventricle of the rabbits to induce a rise in intracranial pressure. The level of intracranial pressure was about 2.3 times as high as its initial level 150 to 180 minutes after injection of autologous blood. 180 minutes after injection of autologous blood, a solution of a test compound in an aqueous 10 w/v % maltose solution was administered intravenously to the rabbits at a rate of 0.1 ml/kg/minute for 20 minutes. Then, the effect of the test compound on the intracranial pressure was calculated in the same manner as described in Example 2. [The initial intracranial pressure (i.e., the normal intracranial pressure measured before injection of autologous blood) was 75±2.6 mm H2 O, and the intracranial pressure measured before administration of test compound was 176±16 mm H2 O.]
Compound 4 listed in Example 1 was used in this experiment.

[6] = test system: intracranial pressure; assay: Effect of i.v. injection of test compounds on intracranial pressure in beagle dogs; type: in vivo, beagle dog (male); conditions: beagle dog, 1.0 mg/kg, 0 minute = 100
Protocol: A solution of a test compound in an aqueous 5 w/v % mannitol solution was infused via the saphenous vein of the beagle dogs at a rate of 0.1 ml/kg/minute for 40 minutes.

[7] = test system: common carotid blood flow; assay: Effect of test compounds on common carotid blood flow in cats; type: in vivo; conditions: cat, right thyroid artery, 30 seconds after administration, baseline 24.1 ± 0.9 ml/minute
Protocol: A solution of a test compound in an aqueous 10 w/v % maltose solution was injected into the right thyroid artery of the cats. The common carotid artery blood flow was continuously monitored via the flow probe set at the common carotid artery. The flow probe was connected to an electromagnetic flow meter, and recordings were made on graph paper. The effect of the test compound on the common carotid blood flow was estimated 30 seconds after administration of the test compound.

[8] = test system: increased intracranial pressure; assay: Effect of i.v. injection on increased intracranial pressure (autologous blood injected into the brain) in rats; type: in vivo, rat (male SD-strain); conditions: rat, 0 minute = 100
Protocol: Male SD-strain rats weighing 500 to 800 g (each group consisting of 5 rats) were anesthetized with urethane. 0.03 ml of autologous blood were injected into the brain of the rats to induce an increase in intracranial pressure. The level of increased intracranial pressure in the rats was about twice as high as its initial level 120 to 180 minutes after injection of autologous blood and said increased intracranial pressure was maintained at an approximately same level thereafter. 180 minutes after injection of autologous blood, a solution of a test compound in an aqueous 5 w/v % mannitol solution was infused via the femoral vein of the rats at a rate of 0.2 ml/kg/minute for 40 minutes. Then, the effect of the test compound on the intracranial pressure was calculated according to the following formula: [formula]
Compound No. 4 listed in Example 1 was used in this experiment.

COc1cc(NC(C)=O)ccc1OCC(O)CN1CCN(c2ccccc2)CC1 (centres unmarked) [Compound 1, 1-(4-acetamido-2-methoxyphenoxy)-3-(4-phenylpiperazino)-2-propanol]
Changes in intracranial pressure ([1]; 1.0 mg/kg, 40 minutes): 81.4%
Changes in intracranial pressure ([1]; 1.0 mg/kg, 60 minutes): 85.5%
Changes in intracranial pressure ([1]; 1.0 mg/kg, 120 minutes): 91.7%
Changes in intracranial pressure ([1]; 1.0 mg/kg, 180 minutes): 92.8%

COc1cc(NC(C)=O)ccc1OCC(O)CN1CCN(c2ccccc2C)CC1 (centres unmarked) [Compound 2, 1-(4-acetamido-2-methoxyphenoxy)-3-[4-(2-methylphenyl)piperazino]-2-propanol]
Changes in intracranial pressure ([1]; 1.0 mg/kg, 40 minutes): 90.5%
Changes in intracranial pressure ([1]; 1.0 mg/kg, 60 minutes): 90.7%
Changes in intracranial pressure ([1]; 1.0 mg/kg, 120 minutes): 90.1%
Changes in intracranial pressure ([1]; 1.0 mg/kg, 180 minutes): 91.5%

COc1cc(NC(C)=O)ccc1OCC(O)CN1CCN(c2ccccc2Cl)CC1 (centres unmarked) [Compound 3, 1-(4-acetamido-2-methoxyphenoxy)-3-[4-(2-chlorophenyl)piperazino]-2-propanol]
Changes in intracranial pressure ([1]; 1.0 mg/kg, 40 minutes): 92.4%
Changes in intracranial pressure ([1]; 1.0 mg/kg, 60 minutes): 87.5%
Changes in intracranial pressure ([1]; 1.0 mg/kg, 120 minutes): 85.3%
Changes in intracranial pressure ([1]; 1.0 mg/kg, 180 minutes): 85.0%

COc1cc(NC(C)=O)ccc1OCC(O)CN1CCN(c2cccc(F)c2)CC1 (centres unmarked) [Compound 4 (free base), 1-(4-acetamido-2-methoxyphenoxy)-3-[4-(3-fluorophenyl)piperazino]-2-propanol]
Changes in intracranial pressure [2]: 75.6%
therapeutic index (50% lethal dose / minimum effective dose) [3]: not less than 400
LD50 at 168 h ([4]; po): 1550 mg/kg

COc1cc(NC(C)=O)ccc1OCC(O)CN1CCN(c2cccc(F)c2)CC1.Cl (centres unmarked) [Compound 4, 1-(4-acetamido-2-methoxyphenoxy)-3-[4-(3-fluorophenyl)piperazino]-2-propanol hydrochloride]
Changes in intracranial pressure ([5]; 1 mg/kg, 20 minutes): 96.4%
Changes in intracranial pressure ([5]; 1 mg/kg, 60 minutes): 91.7%
Changes in intracranial pressure ([5]; 1 mg/kg, 120 minutes): 82.1%
Changes in intracranial pressure ([5]; 1 mg/kg, 180 minutes): 94.0%
Changes in intracranial pressure ([5]; 1 mg/kg, 240 minutes): 91.7%
Changes in intracranial pressure ([5]; 1 mg/kg, 300 minutes): 91.7%
Changes in intracranial pressure ([5]; 2 mg/kg, 20 minutes): 89.5%
Changes in intracranial pressure ([5]; 2 mg/kg, 60 minutes): 77.1%
Changes in intracranial pressure ([5]; 2 mg/kg, 120 minutes): 68.6%
Changes in intracranial pressure ([5]; 2 mg/kg, 180 minutes): 63.8%
Changes in intracranial pressure ([5]; 2 mg/kg, 240 minutes): 65.7%
Changes in intracranial pressure ([5]; 2 mg/kg, 300 minutes): 63.8%
Changes in intracranial pressure ([1]; 0.5 mg/kg, 40 minutes): 84.3%
Changes in intracranial pressure ([1]; 0.5 mg/kg, 60 minutes): 80.5%
Changes in intracranial pressure ([1]; 0.5 mg/kg, 120 minutes): 86.5%
Changes in intracranial pressure ([1]; 0.5 mg/kg, 180 minutes): 86.7%
Changes in intracranial pressure ([1]; 1.0 mg/kg, 40 minutes): 82.6%
Changes in intracranial pressure ([1]; 1.0 mg/kg, 60 minutes): 78.1%
Changes in intracranial pressure ([1]; 1.0 mg/kg, 120 minutes): 82.2%
Changes in intracranial pressure ([1]; 1.0 mg/kg, 180 minutes): 85.2%
Changes in intracranial pressure ([1]; 2.0 mg/kg, 40 minutes): 81.5%
Changes in intracranial pressure ([1]; 2.0 mg/kg, 60 minutes): 72.5%
Changes in intracranial pressure ([1]; 2.0 mg/kg, 120 minutes): 74.6%
Changes in intracranial pressure ([1]; 2.0 mg/kg, 180 minutes): 78.9%
Changes in intracranial pressure ([6]; 40 minutes): 80.3%
Changes in intracranial pressure ([6]; 60 minutes): 75.6%
Changes in intracranial pressure ([6]; 120 minutes): 82.5%
Changes in intracranial pressure ([6]; 180 minutes): 83.1%
Increase in common carotid blood flow ([7]; 1 μg/kg): 3.5 ± 0.8 Δml/minute
Increase in common carotid blood flow ([7]; 5 μg/kg): 6.1 ± 0.6 Δml/minute
Increase in common carotid blood flow ([7]; 10 μg/kg): 8.8 ± 1.3 Δml/minute
LD50 at 168 h ([4]; iv): 280 mg/kg
Changes in intracranial pressure ([8]; 0.5 mg/kg, 40 minutes): 68.0%
Changes in intracranial pressure ([8]; 0.5 mg/kg, 60 minutes): 65.4%
Changes in intracranial pressure ([8]; 0.5 mg/kg, 120 minutes): 74.6%
Changes in intracranial pressure ([8]; 0.5 mg/kg, 180 minutes): 76.0%
Changes in intracranial pressure ([8]; 1.0 mg/kg, 40 minutes): 56.7%
Changes in intracranial pressure ([8]; 1.0 mg/kg, 60 minutes): 60.9%
Changes in intracranial pressure ([8]; 1.0 mg/kg, 120 minutes): 59.2%
Changes in intracranial pressure ([8]; 1.0 mg/kg, 180 minutes): 60.6%

COc1cc(NC(C)=O)ccc1OCC(O)CN1CCN(c2ccccc2F)CC1 (centres unmarked) [Compound 5, 1-(4-acetamido-2-methoxyphenoxy)-3-[4-(2-fluorophenyl)piperazino]-2-propanol]
Changes in intracranial pressure ([1]; 1.0 mg/kg, 40 minutes): 84.0%
Changes in intracranial pressure ([1]; 1.0 mg/kg, 60 minutes): 84.0%
Changes in intracranial pressure ([1]; 1.0 mg/kg, 120 minutes): 81.3%
Changes in intracranial pressure ([1]; 1.0 mg/kg, 180 minutes): 87.5%

COc1cc(NC(C)=O)ccc1OCC(O)CN1CCN(c2cccc(C(F)(F)F)c2)CC1 (centres unmarked) [Compound 6, 1-(4-acetamido-2-methoxyphenoxy)-3-[4-(3-trifluoromethylphenyl)piperazino]-2-propanol]
Changes in intracranial pressure ([1]; 1.0 mg/kg, 40 minutes): 97.0%
Changes in intracranial pressure ([1]; 1.0 mg/kg, 60 minutes): 95.0%
Changes in intracranial pressure ([1]; 1.0 mg/kg, 120 minutes): 90.5%
Changes in intracranial pressure ([1]; 1.0 mg/kg, 180 minutes): 92.8%

COc1ccc(Cc2nccc3cc(OC)c(OC)cc23)cc1OC [Papaverine, reference compound]
Increase in common carotid blood flow ([7]; 10 μg/kg): 2.6 ± 0.2 Δml/minute
Increase in common carotid blood flow ([7]; 25 μg/kg): 5.4 ± 0.6 Δml/minute
